# Biological target: T1, SepSecS (Homo sapiens, UniProt Q9HD40)
# T1 sequence (Q9HD40 1-501): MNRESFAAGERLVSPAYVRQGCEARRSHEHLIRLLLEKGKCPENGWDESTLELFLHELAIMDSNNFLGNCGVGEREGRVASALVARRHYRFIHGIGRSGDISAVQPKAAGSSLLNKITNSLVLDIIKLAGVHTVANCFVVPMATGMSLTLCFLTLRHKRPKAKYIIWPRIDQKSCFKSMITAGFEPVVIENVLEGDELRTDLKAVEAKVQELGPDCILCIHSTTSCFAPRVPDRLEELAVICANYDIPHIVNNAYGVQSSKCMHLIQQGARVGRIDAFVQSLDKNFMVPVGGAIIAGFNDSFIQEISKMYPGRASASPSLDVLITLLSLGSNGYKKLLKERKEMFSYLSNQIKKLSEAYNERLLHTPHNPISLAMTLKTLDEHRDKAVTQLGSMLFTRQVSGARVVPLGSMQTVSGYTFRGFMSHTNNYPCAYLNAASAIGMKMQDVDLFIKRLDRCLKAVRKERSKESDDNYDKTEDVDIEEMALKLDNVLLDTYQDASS
# Assay: X-ray crystallography, […] A
# Assay type: binding
# Conditions: covalent; Schiff base (internal aldimine) with Lys284
compound,measurement,value
"Cc1ncc(COP(=O)(O)O)c(C=O)c1O [PLP, pyridoxal phosphate]","X-ray crystallography, 2.8 A",Each SepSecS monomer has a PLP cofactor covalently linked to the Nε-amino group
